One assay concerns S. aureus strain. The assay can be described thus: Bacterial growth in vitro / MIC. It counts as cell-based.
The next assay relates to S. aureus cells. The assay can be described thus: S. aureus cell attachment in vitro in polystyrene plates. It is filed as cell-based. As to conditions: for reduction of cell attachment (in words): 0-50 μg, 3 hrs at 37° C., OD 595 nm; for amount most effective in reducing cell attachment: converted dose. The procedure:
Attached cells were stained and OD595nm was determined.
To test for the effect of hamamelitannin on bacterial attachment in vitro, S. aureus cells were incubated with 0-50 μg hamamelitannin or RIP in polystyrene plates for 3 hrs at 37° C. Adherent bacteria were stained with methylene blue and OD determined at 595 nm.

The subject of assay [1] is MRSE. The assay can be described thus: Rat graft-associated infection, bacteria pre-incubated with agent, MRSE challenge. It is filed as in vivo, S. epidermidis. As to conditions: for amount that could prevent an infection: infection caused by 2×10^7 CFU MRSE, rat graft. The procedure:
(§1) FIG. 6 is a graph presentation of the effectiveness of bacterial graft-associated infection inhibition by hamamelitannin and RIP against challenge by methicillin resistant S. aureus and S. epidermidis (MRSA and MRSE) using pre-incubation.
(§2) To measure the amount of hamamelitannin necessary to prevent device-associated infections, bacteria (2×10^7 MRSA or MRSE) were pre-incubated with increasing amounts of hamamelitannin for 30 min at room temperature. Grafts were implanted and rats were challenged with the pre-incubated bacteria. Seven days later the graft was removed and bacterial load determined. […] No bacteria was found when either MRSA or MRSE were pre-incubated with >20 μg hamamelitannin.
(§3) In the testing reflected in FIG. 6 and summarized above, to ascertain the amount of hamamelitannin/bacteria necessary to potentially prevent device-associated infections, bacteria (2×10^7 MRSE or MRSA in 150 μl saline) were pre-incubated with hamamelitannin (0, 0.5, 10, 20, 30, 50 μg) for 30 min at room temperature, as noted. Grafts were implanted and rats were challenged with the pre-incubated bacteria. Seven days later the graft was removed and bacterial load determined. […] When the bacteria was treated with 0.5, 10, 20, 30 or 50 μg hamamelitannin, MRSE load was 8.4×10^3±2.2×10^3 for 0.5 μg and 8.7×10^1±6.6×10^1 for 10 μg.

Assay [2] deals with tumor necrosis factor α-mediated endothelial cell death. The settings on record: cited from earlier work.
For a further assay, the system named is RNAIII. The assay can be described thus: RNAIII production in S. aureus cells containing rnaiii::blaZ fusion construct, measured as β-lactamase activity. The settings on record: for inhibition of RNAIII synthesis (in words): 0-50 μg. It counts as cell-based. The procedure:
RNAIII levels were determined as β-lactamase activity (reporter gene product) and denoted as Vmax.
To test if hamamelitannin is a quorum sensing inhibitor and thus suppresses RNAIII synthesis, 2×10^7 cells were incubated with increasing amounts (0-50 μg) of hamamelitannin (or RIP). RNAIII levels were measured as β-lactamase activity as a reporter gene product by the addition of nitrocefin as substrate. […] Hamamelitannin (2′,5-di-O-galloyl hamamelose) was purchased from Chromadex, Inc. (93% purity, as assessed by HPLC by the manufacturer). Hamamelitannin was dissolved in water at 25 mg/ml and stored at −70° C. until use.

In assay [3] the test system is MRSA. The assay can be described thus: Rat graft-associated infection, local treatment (graft soak), MRSA challenge. It is filed as in vivo, S. aureus. The procedure: (§4) FIG. 7 is a graph presentation of the effectiveness of bacterial graft-associated infection inhibition by hamamelitannin against challenge by MRSA and MRSE using local treatment (graft soak).
(§5) To test if hamamelitannin could inhibit graft-associated infection, grafts (1 cm^2 collagen coated Dacron) were soaked for 1 h in increasing hamamelitannin concentrations. The graft was then implanted into the animal, and bacteria injected onto the graft. Seven days later the graft was removed and bacteria on the graft counted.

Assay [4] concerns MRSA. The assay can be described thus: Rat graft-associated infection, bacteria pre-incubated with agent, MRSA challenge. It counts as in vivo, S. aureus. As to conditions: for amount that could prevent an infection: infection caused by 2×10^7 CFU MRSA, rat graft. The procedure: as §1, §2, §3
The subject of assay [5] is MRSE. The assay can be described thus: Rat graft-associated infection, local treatment (graft soak), MRSE challenge. It is filed as in vivo, S. epidermidis. The settings on record: for bacterial load on graft: day 7. How it is done: as §4, §5
The subject of assay [6] is cell damage induced by peroxides or UVB radiation. The settings on record: cited from earlier work.

Results on three compounds are retold here after US20150290227A1, “USE OF HAMAMELITANNIN FOR THE TREATMENT OF STAPHYLOCOCCAL INFECTIONS” (priority 2006, published 2015).

Several values for one entry are separate records, joined by “and”; a condition that tells them apart may be missing. Equal entries are not always repeated. Bounds are passed on as bounds.

Consider `CC1(C)S[C@@H]2[C@H](NC(=O)[C@H](N)c3ccccc3)C(=O)N2[C@H]1C(=O)O` [ampicillin, reference compound], for which the “MIC of ampicillin (reference drug)” value in the assay with S. aureus strain (same S. aureus strain) is reported as 0.2 uM per 1000 bacteria.
Turning to `O=C(OC[C@H]1OC(O)[C@@](O)(COC(=O)c2cc(O)c(O)c(O)c2)[C@@H]1O)c1cc(O)c(O)c(O)c1` (stereo partly drawn) [hamamelitannin, 2′,5-di-O-galloyl hamamelose], in the assay with S. aureus cells, the “reduction of cell attachment (in words)” value is “reduced cell attachment in a dose-dependent manner”. The “amount most effective in reducing cell attachment” value with S. aureus cells is recorded as 0.4 picomoles/10^3 bacteria. The “amount that could prevent an infection” value in the assay with MRSE [1] and with MRSA [4] was 10 µg in each case. The “amount at which no bacteria was found on graft” value with MRSE [1] (rat, 2×10^7 MRSE pre-incubated 30 min, graft removed after seven days) was above 20 µg; in the assay on MRSA [4] (rat, 2×10^7 MRSA pre-incubated 30 min, graft removed after seven days), above 20 µg. For the same compound, the “MRSE load on graft” value is recorded as 8.4×10^3±2.2×10^3 CFU/ml with MRSE [1] (rat, 2×10^7 MRSE pre-incubated with 0.5 μg, day 7) and 8.7×10^1±6.6×10^1 CFU/ml in the assay on MRSE [1] (rat, 2×10^7 MRSE pre-incubated with 10 μg, day 7). In addition, the “MRSE graft infection (in words)” value with MRSE [1] (rat, 2×10^7 MRSE pre-incubated with 20, 30 or 50 μg, day 7) is “No sign of infection”. Moreover, the “concentration inhibiting tumor necrosis factor α-mediated endothelial cell death” value in assay [2] was “less than 100 uM”. Further, in the assay on RNAIII, the “minimal dose inhibiting RNAIII production” value is listed as 0.2 picomoles per 1000 bacteria. For the same compound, the “inhibition of RNAIII synthesis (in words)” value in the assay with RNAIII (2×10^7 cells, 2.5 hrs) is on record as “inhibits RNAIII synthesis in a dose dependent manner”. In addition, the “dose most effective in inhibiting RNAIII synthesis” value with RNAIII (2×10^7 cells, 2.5 hrs) is listed as above 2 μg/2×10^7 bacteria. Moreover, the “bacterial load on graft (in words)” value with MRSA [3] (MRSA, graft pre-soaked in 30 or 50 mg/L, day 7) was “no bacterial load was detected”. Besides, the “bacterial load on graft” value is 9.3×10^4±2.8×10^4 CFU/mL in the assay with MRSA [3] (MRSA, graft soaked with 0.5 mg/L, day 7); 2.6×10^3±0.3×10^3 CFU/mL with MRSA [3] (MRSA, graft soaked with 10 mg/L, day 7); 3.7×10^1±1.1×10^1 CFU/mL in the assay on MRSA [3] (MRSA, graft soaked with 20 mg/L, day 7); 9.0×10^4±2.6×10^4 CFU/mL in the assay with MRSE [5] (MRSE, graft pre-soaked with 0.5 mg/L); 2.1×10^3±0.2×10^3 CFU/mL in the assay on MRSE [5] (MRSE, graft soaked with 10 mg/L); below 10 CFU/mL in the assay with MRSE [5] (MRSE, graft soaked with 30 or 50 mg/L). The “pre-soak concentration at which grafts show no signs of infection” value was “at least 30 mg/L and ~60 uM” in the assay with MRSA [3] (challenge 2×10^7, MRSA); “at least 30 mg/L and ~60 uM” in the assay on MRSE [5] (challenge 2×10^7, MRSE). The “decrease in bacterial load versus untreated control (in words)” value in the assay on MRSA [3] (grafts presoaked 1 h, 0-50 mg/L, MRSA) is listed as “Significant (p<0.05) decrease in bacterial load”; with MRSE [5] (grafts presoaked 1 h, 0-50 mg/L, MRSE), “Significant (p<0.05) decrease in bacterial load”. Moreover, the “MRSA load on graft” value in the assay with MRSA [4] (rat, 2×10^7 MRSA pre-incubated with 0.5 μg, day 7) was 8.8×10^3±2.3×10^3 CFU/mL; with MRSA [4] (rat, 2×10^7 MRSA pre-incubated with 10 μg, day 7) it was 3.6×10^2±0.8×10^2 CFU/mL. In the assay on MRSA [4] (rat, 2×10^7 MRSA pre-incubated with 20, 30 or 50 μg, day 7), the “MRSA graft infection (in words)” value was “No sign of infection”. The “concentration affecting bacterial growth in vitro (no effect even at concentrations as high as)” value with S. aureus strain (S. aureus) is given as above 2.5 mM per 1000 bacteria. In the assay on S. aureus strain (same S. aureus strain), the “highest concentration without effect on growth relative to the MIC of ampicillin” value is listed as 13,000 times. Besides, the “minimum concentration with high protective activity against cell damage” value in [6] was 50 µM.
On to “RIP: RNAIII-inhibiting peptide, sequence YSPWTNF, antagonist of RAP [reference compound]”, for which, in the assay with S. aureus cells, the “reduction of cell attachment (in words)” value is given as “reduced cell attachment in a dose-dependent manner” and the “amount most effective in reducing cell attachment” value is reported as 0.4 picomoles/10^3 bacteria. For the same compound, the “amount that could prevent an infection” value with MRSE [1] was found to be 10 µg. Also, in the assay with RNAIII, the “minimal dose inhibiting RNAIII production” value is 0.5 picomoles per 1000 bacteria. In the assay with RNAIII (2×10^7 cells, 2.5 hrs), the “inhibition of RNAIII synthesis (in words)” value is given as “inhibited RNAIII production in a dose dependent manner” and the “dose most effective in inhibiting RNAIII synthesis” value came to 8 μg/2×10^7 bacteria. Also, in the assay on RNAIII (converted dose), the “dose most effective in inhibiting RNAIII synthesis” value was determined as 0.5 picomoles/10^3 bacteria. Further, in the assay with MRSA [4], the “amount that could prevent an infection” value stood at 10 µg.
